Results: patent publication US8022099B2, “N-benzyl pyrrolidine derivatives” (Hoffmann-La Roche Inc., priority 2008, dated 2011)

Target: T1, human NK3 receptor (Homo sapiens, UniProt P29371)
T1 construct: expressed in transfected cells; host or cells: HEK293 cells (transient expression), membrane preparation
T1 sequence (P29371 1-465): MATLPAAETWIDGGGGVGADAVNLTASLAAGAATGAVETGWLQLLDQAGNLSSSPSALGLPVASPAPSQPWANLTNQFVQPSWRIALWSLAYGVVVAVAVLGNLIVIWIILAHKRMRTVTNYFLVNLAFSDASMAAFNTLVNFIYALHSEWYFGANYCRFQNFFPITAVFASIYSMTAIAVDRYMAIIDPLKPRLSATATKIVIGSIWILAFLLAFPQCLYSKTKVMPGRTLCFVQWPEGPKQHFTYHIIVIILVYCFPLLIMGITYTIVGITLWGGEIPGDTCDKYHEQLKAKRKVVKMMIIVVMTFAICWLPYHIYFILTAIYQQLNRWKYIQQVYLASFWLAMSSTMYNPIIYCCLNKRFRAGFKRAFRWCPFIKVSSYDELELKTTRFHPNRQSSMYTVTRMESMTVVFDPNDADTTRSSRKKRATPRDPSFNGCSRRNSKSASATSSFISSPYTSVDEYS
Test: [3H]SR142801 competition binding assay
Details: hNK3 receptor binding, [3H]SR142801, membranes from HEK293 cells transiently expressing recombinant human NK3 receptor
Procedure: [^3H]SR142801 Competition Binding Assay
hNK3 receptor binding experiment were performed using [^3H]SR142801 (Catalog No. TRK1035, specific activity: 74.0 Ci/mmol, Amersham, GE Healthcare UK limited, Buckinghamshire, UK) and membrane isolated from HEK293 cells transiently expressing recombinant human NK3 receptor. After thawing, the membrane homogenates were centrifuged at 48,000×g for 10 min at 4° C., the pellets were resuspended in the 50 mM Tris-HCl, 4 mM MnCl2, 1 μM phosphoramidon, 0.1% BSA binding buffer at pH 7.4 to a final assay concentration of 5 μg protein/well. For inhibition experiments, membranes were incubated with [^3H]SR142801 at a concentration equal to KD value of radioligand and 10 concentrations of the inhibitory compound (0.0003-10 μM) (in a total reaction volume of 500 μl) for 75 min at room temperature (RT). At the end of the incubation, membranes were filtered onto unitfilter (96-well white microplate with bonded GF/C filter preincubated 1 h in 0.3% PEI+0.3% BSA, Packard BioScience, Meriden, Conn.) with a Filtermate 196 harvester (Packard BioScience) and washed 4 times with ice-cold 50 mM Tris-HCl, pH 7.4 buffer. Nonspecific binding was measured in the presence of 10 μM SB222200 for both radioligands. The radioactivity on the filter was counted (5 min) on a Packard Top-count microplate scintillation counter with quenching correction after addition of 45 μl of microscint 40 (Canberra Packard S. A., Zürich, Switzerland) and shaking for 1 h. Inhibition curves were fitted according to the Hill equation: y=100/(1+(x/IC50)^nH), where nH=slope factor using Excel-fit 4 software (Microsoft). IC50 values were derived from the inhibition curve and the affinity constant (Ki) values were calculated using the Cheng-Prussoff equation Ki=IC50/(1+[L]/KD) where [L] is the concentration of radioligand and KD is its dissociation constant at the receptor, derived from the saturation isotherm. All experiments were performed in duplicate and the mean±standard error (SEM) of the individual Ki values was calculated.

| Compound | Ki [nM] |
| --- | --- |
| CN(Cc1ccc(C(F)(F)F)c(F)c1)[C@H]1CN(C(=O)N2CCN(c3ccccc3C#N)CC2)C[C@@H]1c1ccc(Cl)c(Cl)c1 (racemic) [Example 70, 2-(4-{(3SR,4RS)-3-(3,4-Dichloro-phenyl)-4-[(3-fluoro-4-trifluoromethyl-benzyl)-methyl-amino]-pyrrolidine-1-carbonyl}-piperazin-1-yl)-benzonitrile] | 10.5 |
| C[C@H]1CN(C(=O)N2C[C@H](c3ccc(Cl)c(Cl)c3)[C@@H](N(C)Cc3ccc(C(F)(F)F)c(F)c3)C2)CCN1S(C)(=O)=O (mixture of isomers) [Example 59, {(3SR,4RS)-3-(3,4-Dichloro-phenyl)-4-[(3-fluoro-4-trifluoromethyl-benzyl)-methyl-amino]-pyrrolidin-1-yl}-((S)-4-methanesulfonyl-3-methyl-piperazin-1-yl)-methanone] | 15.4 |
| CN1CCN(CC(=O)N2C[C@H](c3ccc(Cl)c(Cl)c3)[C@@H](N(C)Cc3ccc(C(F)(F)F)c(F)c3)C2)CC1 (racemic) [Example 114, 1-{(3SR,4RS)-3-(3,4-Dichloro-phenyl)-4-[(3-fluoro-4-trifluoromethyl-benzyl)-methyl-amino]-pyrrolidin-1-yl}-2-(4-methyl-piperazin-1-yl)-ethanone] | 40.2 |
| CN(Cc1ccc(C(F)(F)F)c(F)c1)[C@H]1CN(C(=O)N2CCN(S(C)(=O)=O)CC2)C[C@@H]1c1ccc(Cl)c(F)c1 (racemic) [Example 81, {(3SR,4RS)-3-(4-Chloro-3-fluoro-phenyl)-4-[(3-fluoro-4-trifluoromethyl-benzyl)-methyl-amino]-pyrrolidin-1-yl}-(4-methanesulfonyl-piperazin-1-yl)-methanone] | 14.6 |
| CN(Cc1ccc(C(F)(F)F)c(F)c1)[C@H]1CN(C(=O)CN2CCN(S(C)(=O)=O)CC2)C[C@@H]1c1ccc(Cl)c(Cl)c1 (racemic) [Example 115, 1-{(3SR,4RS)-3-(3,4-Dichloro-phenyl)-4-[(3-fluoro-4-trifluoromethyl-benzyl)-methyl-amino]-pyrrolidin-1-yl}-2-(4-methanesulfonyl-piperazin-1-yl)-ethanone] | 13 |
| CN(Cc1ccc(C(F)(F)F)c(F)c1)[C@H]1CN(C(=O)N2CCOCC2)C[C@@H]1c1ccc(Cl)c(Cl)c1 (racemic) [Example 52, {(3SR,4RS)-3-(3,4-Dichloro-phenyl)-4-[(3-fluoro-4-trifluoromethyl-benzyl)-methyl-amino]-pyrrolidin-1-yl}-morpholin-4-yl-methanone] | 71.3 |
| CN(Cc1ccc(C(F)(F)F)c(F)c1)[C@H]1CN(C(=O)C2CCN(C(=O)C3(C)CC3)CC2)C[C@@H]1c1ccc(Cl)c(Cl)c1 (racemic) [Example 149, {(3SR,4RS)-3-(3,4-Dichloro-phenyl)-4-[(3-fluoro-4-trifluoromethyl-benzyl)-methyl-amino]-pyrrolidin-1-yl}-[1-(1-methyl-cyclopropanecarbonyl)-piperidin-4-yl]-methanone] | 3.1 |
| CN(Cc1ccc(C(F)(F)F)c(F)c1)[C@H]1CN(C(=O)N2CCN(CCC#N)CC2)C[C@@H]1c1ccc(Cl)c(Cl)c1 (racemic) [Example 79, 3-(4-{(3SR,4RS)-3-(3,4-Dichloro-phenyl)-4-[(3-fluoro-4-trifluoromethyl-benzyl)-methyl-amino]-pyrrolidine-1-carbonyl}-piperazin-1-yl)-propionitrile] | 1.9 |
| CN(Cc1ccc(C(F)(F)F)c(F)c1)[C@H]1CN(C(=O)CN2CCOCC2)C[C@@H]1c1ccc(Cl)c(Cl)c1 (racemic) [Example 113, 1-{(3SR,4RS)-3-(3,4-Dichloro-phenyl)-4-[(3-fluoro-4-trifluoromethyl-benzyl)-methyl-amino]-pyrrolidin-1-yl}-2-morpholin-4-yl-ethanone] | 45.7 |
| CC(=O)N[C@@H]1CCN(CC(=O)N2C[C@H](c3ccc(Cl)c(Cl)c3)[C@@H](N(C)Cc3ccc(C(F)(F)F)c(F)c3)C2)C1 (mixture of isomers) [Example 134, N-[(R)-1-(2-{(3SR,4RS)-3-(3,4-Dichloro-phenyl)-4-[(3-fluoro-4-trifluoromethyl-benzyl)-methyl-amino]-pyrrolidin-1-yl}-2-oxo-ethyl)-pyrrolidin-3-yl]-acetamide] | 43.2 |
| CN(Cc1ccc(C(F)(F)F)c(F)c1)[C@H]1CN(C(=O)N2CCN(S(C)(=O)=O)CC2)C[C@@H]1c1ccccc1 (racemic) [Example 17, {(3RS,4SR)-3-[(3-Fluoro-4-trifluoromethyl-benzyl)-methyl-amino]-4-phenyl-pyrrolidin-1-yl}-(4-methanesulfonyl-piperazin-1-yl)-methanone] | 90.9 |
| CN(Cc1ccc(C(F)(F)F)c(F)c1)[C@H]1CN(C(=O)CCCCN2CCN(S(=O)(=O)N(C)C)CC2)C[C@@H]1c1ccc(Cl)c(Cl)c1 (racemic) [Example 90, 4-(5-{(3SR,4RS)-3-(3,4-Dichloro-phenyl)-4-[(3-fluoro-4-trifluoromethyl-benzyl)-methyl-amino]-pyrrolidin-1-yl}-5-oxo-pentyl)-piperazine-1-sulfonic acid dimethylamide] | 8.6 |
| CC(=O)N1CCN(C(=O)N2C[C@H](c3ccc(Cl)c(Cl)c3)[C@@H](N(C)Cc3ccc(C(F)(F)F)c(F)c3)C2)CC1 (racemic) [Example 51, 1-(4-{(3SR,4RS)-3-(3,4-Dichloro-phenyl)-4-[(3-fluoro-4-trifluoromethyl-benzyl)-methyl-amino]-pyrrolidine-1-carbonyl}-piperazin-1-yl)-ethanone] | 17.3 |
| CN(Cc1ccc(C(F)(F)F)c(F)c1)[C@H]1CN(C(=O)CN2CCS(=O)(=O)CC2)C[C@@H]1c1ccc(Cl)c(Cl)c1 [Example 135, 1-{(3S,4R)-3-(3,4-Dichloro-phenyl)-4-[(3-fluoro-4-trifluoromethyl-benzyl)-methyl-amino]-pyrrolidin-1-yl}-2-(1,1-dioxo-λ^6-thiomorpholin-4-yl)-ethanone] | 43.7 |
| CN(Cc1ccc(C(F)(F)F)c(F)c1)[C@H]1CN(C(=O)CNCCC#N)C[C@@H]1c1ccc(Cl)c(Cl)c1 (racemic) [Example 127, 3-(2-{(3SR,4RS)-3-(3,4-Dichloro-phenyl)-4-[(3-fluoro-4-trifluoromethyl-benzyl)-methyl-amino]-pyrrolidin-1-yl}-2-oxo-ethylamino)-propionitrile] | 99.7 |
| CN(C)CCCCC(=O)N1C[C@H](c2ccc(Cl)c(Cl)c2)[C@@H](N(C)Cc2ccc(C(F)(F)F)c(F)c2)C1 (racemic) [Example 87, 1-{(3SR,4RS)-3-(3,4-Dichloro-phenyl)-4-[(3-fluoro-4-trifluoromethyl-benzyl)-methyl-amino]-pyrrolidin-1-yl}-5-dimethylamino-pentan-1-one] | 51.2 |
| CN(Cc1ccc(C(F)(F)F)c(F)c1)[C@H]1CN(C(=O)CN2CCN(S(=O)(=O)N(C)C)CC2)C[C@@H]1c1ccc(Cl)c(Cl)c1 (racemic) [Example 116, 4-(2-{(3SR,4RS)-3-(3,4-Dichloro-phenyl)-4-[(3-fluoro-4-trifluoromethyl-benzyl)-methyl-amino]-pyrrolidin-1-yl}-2-oxo-ethyl)-piperazine-1-sulfonic acid dimethylamide] | 16.9 |
| CN(Cc1ccc(C(F)(F)F)c(F)c1)[C@H]1CN(C(=O)N2CCN(c3ccc(C#N)cc3)CC2)C[C@@H]1c1ccc(Cl)c(Cl)c1 (racemic) [Example 72, 4-(4-{(3SR,4RS)-3-(3,4-Dichloro-phenyl)-4-[(3-fluoro-4-trifluoromethyl-benzyl)-methyl-amino]-pyrrolidine-1-carbonyl}-piperazin-1-yl)-benzonitrile] | 2.7 |
| CN(Cc1ccc(C(F)(F)F)c(F)c1)[C@H]1CN(C(=O)CCCCN2CCNCC2)C[C@@H]1c1ccc(Cl)c(Cl)c1 (racemic) [Example 88, 1-{(3SR,4RS)-3-(3,4-Dichloro-phenyl)-4-[(3-fluoro-4-trifluoromethyl-benzyl)-methyl-amino]-pyrrolidin-1-yl}-5-piperazin-1-yl-pentan-1-one] | 24.7 |
